According to BigSolDB 2.1:

OC(CN1CCN(CC(O)(Cn2cncn2)c2ccc(F)cc2F)CC1)(Cn1cncn1)c1ccc(F)cc1F (stereo not given)
solubility (mole fraction)
Details	293.15 K	298.15 K	303.15 K	308.15 K	313.15 K
in ethanol	0.000305	0.00036	0.000401	0.000463	0.000548
in n-hexane	9.77e-07	1.17e-06	1.37e-06	1.62e-06	1.92e-06
in n-octanol	6.23e-05	7.87e-05	0.000101	0.000126	0.00016
